Data set [1] is described as follows: Phase 1 open-label study: single-dose plasma pharmacokinetics of Compound A with and without cobicistat. In kind it is in vivo, human. The following applies: for DNAUCinf112 (Day 12) / DNAUClast112 (Day 12) / DNCmax112 (Day 12): 14 mg Compound A oral + MD 150 mg cobicistat; for DNAUCinf112 (Day 12) / DNAUClast112 (Day 12) / DNCmax112 (Day 12) / DNAUCi nf 112Ratio (Day 12/Day 3) / DNAUCla st 112Ratio (Day 12/Day 3) / DNCma x 112Ratio (Day 12/Day 3) / DNAUCinf112 (Day 3) / DNAUClast112 (Day 3) / DNCmax112 (Day 3): n=15; for DNAUCi nf 112Ratio (Day 12/Day 3) / DNAUCla st 112Ratio (Day 12/Day 3) / DNCma x 112Ratio (Day 12/Day 3): 14 mg oral + cobicistat versus 112 mg oral alone, dose-normalized. An excerpt:
The purpose of this study was to evaluate the effect of cobicistat on Compound A. The primary goal was to evaluate whether cobicistat can boost plasma concentrations of oral Compound A in humans and therefore, can be used in combination with Compound A as part of an oral dose regimen. The magnitude of this intentional drug-drug interaction (DDI) is also quantified. This was a non-randomized, open-label, fixed-sequence study in healthy male and female (women of non-childbearing potential [WONCBP]) subjects. […] Predose blood samples for cobicistat PK were also collected on Days 7, 9, 10, and 11. […] PK blood samples for cobicistat were collected predose on Day 12 and up until 24 hours post cobicistat dosing and at 24-hour post Day 13 cobicistat dosing. Plasma pharmacokinetic parameters of Compound A after oral administration with and without cobicistat as follows • Maximum observed concentration (Cmax). • Area under the concentration-time curve from time 0 to infinity, calculated using the observed value of the last quantifiable concentration (AUCinf). • Area under the concentration-time curve from time 0 to the time of the last quantifiable concentration (AUClast). […] Plasma pharmacokinetic parameters of Compound A after oral administration with and without cobicistat (Cmax, AUCinf and AUClast) were calculated.

Data set [2] in a line: Safety and tolerability of single oral dose of Compound A with and without cobicistat. In kind it is in vivo, human. The following applies: single oral dose of Compound A with steady state cobicistat, healthy adult subjects. As to the method:
· To evaluate the safety and tolerability of a single oral dose of Compound A with and without cobicistat.
Safety was assessed by monitoring for adverse events (AEs), vital signs, safety 12-lead electrocardiograms (ECGs), safety laboratory assessments, pulse oximetry, C-SSRS (Columbia Suicide Severity Rating Scale), and physical examinations throughout the study.

The subject of data set [3] is rodent model of narcolepsy. The following applies: cited from earlier work.
The subject of data set [4] is healthy mice. The following applies: cited from earlier work.
Data set [5] concerns nonhuman primates. The following applies: cited from earlier work.
The conditions of data set [6]: intravenous single dose studies, healthy volunteers and NT1 patients; cited from earlier work.
For data set [7], the system named is CYP3A. Put plainly: Midazolam as in vivo probe for human CYP3A activity under cobicistat. The following applies: 0.5 mg midazolam oral with 150 mg cobicistat QD, Day 7 and Day 10, versus 1 mg midazolam alone.
Procedure: Midazolam is a benzodiazepine derivative that is exclusively metabolized by the CYP3A enzymatic pathway and therefore, was used as an in vivo probe for human CYP3A activity.
On Day 1, subjects received 1 mg midazolam orally and pharmacokinetic (PK) blood samples for midazolam (and its metabolite 1-hydroxy (1-OH) midazolam) were collected predose and up until 24 hours postdose to establish baseline cytochrome P450 (CYP) 3A activity.
On Days 7 and 10, 0.5 mg midazolam were administered orally (30 minutes after the cobicistat dose) and PK blood for midazolam and 1-OH midazolam were collected on each of these days, predose and up until 24 hours post midazolam dosing.
Blood PK sampling for midazolam and its metabolite (1-hydroxymidazolam): • Study Day 1: predose (prior to midazolam administration), 0.5, 1, 1.5, 2, 4, 6, 8, 12 hours postdose • Study Day 2: 24 hours post Day 1 dosing and prior to start of Compound A IV infusion • Study Day 7: predose (prior to cobicistat and midazolam administration), 0.5, 1, 1.5, 2, 4, 6, 8, 12 hours post midazolam dosing • Study Day 8: 24 hours post Day 7 midazolam dosing and prior to cobicistat administration • Study Day 10: predose (prior to cobicistat and midazolam administration), 0.5, 1, 1.5, 2, 4, 6, 8, 12 hours post midazolam dosing • Study Day 11: 24 hours post Day 10 midazolam dosing and prior to cobicistat administration
Setting [8] is: 14 mg Compound A oral + QD 150 mg cobicistat compared to 14 mg IV alone (9-hour IV infusion).
Setting [9] is: 14 mg Compound A oral + QD 150 mg cobicistat versus 112 mg oral alone, dose-normalized to 112 mg.
Setting [10] is: 112 mg Compound A oral alone compared to 14 mg Compound A IV alone.
Setting [11] is: Geom Mean, dose-normalized to 112 mg.
Where [12] appears, read: Geom Mean, 112 mg Compound A oral alone.
[13] abbreviates: Mean, dose-normalized to 112 mg.
Where [14] appears, read: Mean, 112 mg Compound A oral alone.

Where two headings read alike, the source gives them in different places.

The values below come from patent US20230029486A1, “A METHOD FOR ENHANCING THE PHARMACOKINETICS OR INCREASING THE PLASMA CONCENTRATION OF METHYL 3-((METHYLSULFONYL)AMINO)-2-(((4-PHENYLCYCLOHEXYL)OXY)METHYL)PIPERIDINE-1-CARBOXYLATE OR A SALT THEREOF WITH AN INHIBITOR OF CYTOCHROME P450” (TAKEDA PHARMACEUTICAL COMPANY LIMITED, priority 2020, published 2023).

Regarding `COC(=O)N1CCC[C@H](NS(C)(=O)=O)[C@@H]1CO[C@H]1CC[C@@H](c2ccccc2)CC1` [Compound A, methyl (2R,3S)-3-((methylsulfonyl)amino)-2-(((cis-4-phenylcyclohexyl)oxy)methyl)piperidine-1-carboxylate], in data set [1] (14 mg Compound A IV alone), the “mean t1/2z” value is 3.7 h. Besides, in data set [1] (14 mg Compound A oral + QD 150 mg cobicistat), the “mean t1/2z” value was ~ 8 hours. Moreover, in data set [1] (setting [8]), the “geometric mean dose-normalized AUC∞, increase over IV” value worked out at 2.8 fold and the “geometric mean dose-normalized Cmax, increase over IV” value is 7.9 fold. In data set [1] (setting [9]), the “increase of geometric LSM AUClast” value is given as roughly 109 fold, the “increase of geometric LSM AUC∞” value is roughly 109 fold and the “increase of geometric LSM Cmax” value was “approximately 50 fold”. Moreover, the “dose-normalized Cmax, AUCinf and AUClast of plasma Compound A, Day 12 versus Day 3” value in data set [1] (14 mg oral + MD 150 mg cobicistat versus 112 mg oral alone) is given as “much higher”. The “mean t1/2z” value in data set [1] (112 mg Compound A oral alone) came to 4.9 h. Besides, in data set [1] (setting [10]), the “geometric mean dose-normalized AUC∞, lower than IV” value is roughly 97% and the “geometric mean dose-normalized Cmax, lower than IV” value is listed as “approximately 84%”. In addition, in data set [1] (setting [11]), the “DNAUCinf112 (Day 12)” value is reported as 7623 ng*hr/mL/112 mg Compound A, the “DNAUClast112 (Day 12)” value is listed as 7504 ng*hr/mL/112 mg Compound A and the “DNCmax112 (Day 12)” value stood at 2253 ng/mL/112 mg Compound A. In data set [1] (Geom Mean), the “DNAUCi nf 112Ratio (Day 12/Day 3)” value was 10942%, the “DNAUCla st 112Ratio (Day 12/Day 3)” value is listed as 10871% and the “DNCma x 112Ratio (Day 12/Day 3)” value was 5028%. In data set [1] (setting [12]), the “DNAUCinf112 (Day 3)” value is 69.67 ng*hr/mL/112 mg Compound A, the “DNAUClast112 (Day 3)” value is 69.02 ng*hr/mL/112 mg Compound A and the “DNCmax112 (Day 3)” value is reported as 44.81 ng/mL/112 mg Compound A. Besides, in data set [1] (setting [13]), the “DNAUCinf112 (Day 12)” value is recorded as 8448 ng*hr/mL/112 mg Compound A and the “DNAUClast112 (Day 12)” value is on record as 8231 ng*hr/mL/112 mg Compound A. Moreover, in data set [1] (Mean, dose-normalized to 112 mg, plasma, healthy subjects), the “DNCmax112 (Day 12)” value amounted to 2335 ng/mL/112 mg Compound A. In data set [1] (Mean), the “DNAUCi nf 112Ratio (Day 12/Day 3)” value is listed as 14349%, the “DNAUCla st 112Ratio (Day 12/Day 3)” value is on record as 14385% and the “DNCma x 112Ratio (Day 12/Day 3)” value was determined as 8290%. For the same compound, in data set [1] (setting [14]), the “DNAUCinf112 (Day 3)” value is on record as 94.59 ng*hr/mL/112 mg Compound A and the “DNAUClast112 (Day 3)” value is recorded as 94.21 ng*hr/mL/112 mg Compound A. Also, in data set [1] (Mean, 112 mg Compound A oral alone, plasma, healthy subjects), the “DNCmax112 (Day 3)” value stood at 66.35 ng/mL/112 mg Compound A. The “systemic exposures of Compound A administered orally, effect of cobicistat” value in data set [1] (via potent CYP3A inhibition, healthy adult subjects) was “significantly increased”. In addition, the safety and tolerability result in data set [2] was “generally safe and well tolerated”.

As for `COC(=O)N1CCCC(NS(C)(=O)=O)C1COC1CCC(c2ccccc2)CC1` (stereo not shown) [methyl 3-((methylsulfonyl)amino)-2-(((4-phenylcyclohexyl)oxy)methyl)piperidine-1-carboxylate], in data set [3], the improving wakefulness result is listed as “significant effects” and the reducing cataplexy-like symptoms result was “significant effects”. For the same compound, the wakefulness entry in data set [4] is reported as “promoted wakefulness”. For the same compound, the wakefulness result in data set [5] is “promoted wakefulness”. In addition, the safety and tolerability entry in data set [6] was “safe and well-tolerated”.

Turning to `Cc1ncc2n1-c1ccc(Cl)cc1C(c1ccccc1F)=NC2` [midazolam], the “midazolam Cmax, increase with cobicistat” value in data set [7] is “approximately 5 fold”.
